Assay results taken from patent US9066977B2, “Method of utilization of combination of benzophenone derivative or salt thereof and immunosuppressing agent, and pharmaceutical composition comprising these components” (TOYAMA CHEMICAL CO., LTD., priority 2008, dated 2015).

Tests used:
[1] = system: mouse type II collagen-induced arthritis; test: Combined use of compound A and methotrexate on mouse type II collagen-induced arthritis (Test Example 1); assay type: in vivo; settings: male DBA/1J mice, day following final administration
Procedure: Eight-week-old male DBA/1J mice (9 or 10 mice per group; Charles River Laboratories Japan) were used. A 2 mg/mL bovine type II collagen dissolved in a 0.1 mol/L acetic acid solution (Koken Co., Ltd.) was mixed with an equal volume of Freund's complete adjuvant (BD Diagnostic Systems) to prepare an emulsion. The emulsion (0.2 mL) was intradermally injected at the hip of each mouse. Twenty-one days after the primary immunization, the same treatment was carried out (secondary immunization), so that type II collagen arthritis was induced.
Compound A was dissolved in a 2-fold molar amount of sodium hydroxide solution, and a 3-fold weight of polyvinylpyrrolidone was then added to the solution, followed by dilution with distilled water. The concentration of compound A in a compound A (1 mg/kg)-dosing solution was adjusted to be 0.1 mg/mL. Methotrexate was suspended in 0.5% methylcellulose solution. The concentration of methotrexate in methotrexate (0.5 mg/kg)-dosing solution was adjusted to be 0.05 mg/mL. Each dosing solution was orally administered to the mice.
To control group, polyvinylpyrrolidone solution and 0.5% methylcellulose solution were orally administered. […]
The knuckle portion and the articulations of wrist and tarsus portions of the four paws of each mouse were evaluated using the following 4 scores. […]

[2] = system: mouse type II collagen-induced arthritis; test: Combined use of compound A and dexamethasone on mouse type II collagen-induced arthritis (Test Example 2); assay type: in vivo; settings: male DBA/1J mice, day following final administration
Procedure: Eight-week-old male DBA/1J mice (8-10 mice per group; Charles River Laboratories Japan) were used. The induction of mouse type II collagen arthritis was conducted by the method according to Test Example 1.
Compound A was dissolved in a 2-fold molar amount of sodium hydroxide solution, and a 3-fold weight of polyvinylpyrrolidone was then added to the solution, followed by dilution with distilled water. The concentrations of compound A in compound A (1 mg/kg and 10 mg/kg)-dosing solutions were adjusted to be 0.1 mg/mL and 1.0 mg/mL. The concentration of compound A in a compound A (1 mg/kg)-dosing solution in combined administration was adjusted to be 0.2 mg/mL. Dexamethasone was suspended in polyvinylpyrrolidone solution. The concentration of dexamethasone in dexamethasone (0.025 mg/kg)-dosing solution was adjusted to be 0.0025 mg/mL. The concentration of dexamethasone in dexamethasone (0.025 mg/kg)-dosing solution in combined administration was adjusted to be 0.005 mg/mL. Each dosing solution was orally administered to the mice.
To control group, polyvinylpyrrolidone solution was orally administered.
After dividing into groups, and the second immunization, compound A and dexamethasone were administered once a day for 14 days.
The evaluation to mouse arthritis was conducted by the method according to Test Example 1.

[3] = Compound A 1 mg/kg orally once a day for 14 days

O=C(O)CCc1cc(C(=O)c2ccc(OC3CCCC3)cc2O)ccc1OCc1ccc2c(O)noc2c1 [Compound A, 3-(5-(4-(cyclopentyloxy)-2-hydroxybenzoyl)-2-((3-hydroxy-1,2-benzisoxazol-6-yl)methoxy)phenyl)propionic acid]
Arthritis inhibition rate (%) [1, 3]: 19%
Arthritis inhibition rate (%) [2, 3]: 14%
Arthritis inhibition rate (%) ([2]; Compound A 10 mg/kg orally once a day for 14 days): 58%

C[C@@H]1C[C@H]2[C@@H]3CCC4=CC(=O)C=C[C@]4(C)[C@@]3(F)[C@@H](O)C[C@]2(C)[C@@]1(O)C(=O)CO [Dexamethasone, reference compound]
Arthritis inhibition rate (%) ([2]; Dexamethasone 0.025 mg/kg orally once a day for 14 days): 30%

CN(Cc1cnc2nc(N)nc(N)c2n1)c1ccc(C(=O)N[C@@H](CCC(=O)O)C(=O)O)cc1 [Methotrexate, reference compound]
Arthritis inhibition rate (%) ([1]; Methotrexate 0.5 mg/kg orally once a day for 14 days): 15%
